Data taken from ChEMBL document CHEMBL5724914, “Linking interpersonal differences in gut microbiota composition and drug biotransformation activity” (2024).

How the values were obtained:
[1] = The drug is tested on Z-003 corresponding to pig gut metagenome with ENA study accession number: PRJEB37062 and ENA sample accession number: ERS12561803 for biotransformation under anaerobic condition. The drug concentrations were measured over 9 timepoints collected between 0 and 24 hours of incubation by liquid-chromatography-coupled mass spectrometry (LC–MS); conditions: 2 µM
[2] = The drug is tested on WLS-310 corresponding to human gut metagenome with ENA study accession number: PRJEB37062 and ENA sample accession number: ERS12561785 for biotransformation under anaerobic condition. The drug concentrations were measured over 9 timepoints collected between 0 and 24 hours of incubation by liquid-chromatography-coupled mass spectrometry (LC–MS); conditions: 2 µM
[3] = human gut metagenome, 24 h, 2 µM
[4] = The drug is tested on Z-018 corresponding to pig gut metagenome with ENA study accession number: PRJEB37062 and ENA sample accession number: ERS12561817 for biotransformation under anaerobic condition. The drug concentrations were measured over 9 timepoints collected between 0 and 24 hours of incubation by liquid-chromatography-coupled mass spectrometry (LC–MS); conditions: 2 µM
[5] = The drug is tested on WLS-098 corresponding to human gut metagenome with ENA study accession number: PRJEB37062 and ENA sample accession number: ERS12561754 for biotransformation under anaerobic condition. The drug concentrations were measured over 9 timepoints collected between 0 and 24 hours of incubation by liquid-chromatography-coupled mass spectrometry (LC–MS); conditions: 2 µM
[6] = The drug is tested on WLS-006 corresponding to human gut metagenome with ENA study accession number: PRJEB37062 and ENA sample accession number: ERS12561741 for biotransformation under anaerobic condition. The drug concentrations were measured over 9 timepoints collected between 0 and 24 hours of incubation by liquid-chromatography-coupled mass spectrometry (LC–MS); conditions: 2 µM
[7] = human gut metagenome, 24 h, 2 µM; remark: listed apart in the source
[8] = human gut metagenome, 24 h, 2 µM; remark: listed apart in the source
[9] = human gut metagenome, 24 h, 2 µM; remark: listed apart in the source
[10] = The drug is tested on WLS-077 corresponding to human gut metagenome with ENA study accession number: PRJEB37062 and ENA sample accession number: ERS12561750 for biotransformation under anaerobic condition. The drug concentrations were measured over 9 timepoints collected between 0 and 24 hours of incubation by liquid-chromatography-coupled mass spectrometry (LC–MS); conditions: 2 µM
[11] = human gut metagenome, 24 h, 2 µM; remark: listed apart in the source
[12] = The drug is tested on WLS-170 corresponding to human gut metagenome with ENA study accession number: PRJEB37062 and ENA sample accession number: ERS12561762 for biotransformation under anaerobic condition. The drug concentrations were measured over 9 timepoints collected between 0 and 24 hours of incubation by liquid-chromatography-coupled mass spectrometry (LC–MS); conditions: 2 µM
[13] = human gut metagenome, 24 h, 2 µM; remark: listed apart in the source
[14] = The drug is tested on Z-027 corresponding to metagenome with ENA study accession number: PRJEB37062 and ENA sample accession number: ERS12561826 for biotransformation under anaerobic condition. The drug concentrations were measured over 9 timepoints collected between 0 and 24 hours of incubation by liquid-chromatography-coupled mass spectrometry (LC–MS); conditions: 2 µM
[15] = human gut metagenome, 24 h, 2 µM; remark: listed apart in the source
[16] = The drug is tested on Z-029 corresponding to rat gut metagenome with ENA study accession number: PRJEB37062 and ENA sample accession number: ERS12561828 for biotransformation under anaerobic condition. The drug concentrations were measured over 9 timepoints collected between 0 and 24 hours of incubation by liquid-chromatography-coupled mass spectrometry (LC–MS); conditions: 2 µM
[17] = The drug is tested on Z-026 corresponding to metagenome with ENA study accession number: PRJEB37062 and ENA sample accession number: ERS12561825 for biotransformation under anaerobic condition. The drug concentrations were measured over 9 timepoints collected between 0 and 24 hours of incubation by liquid-chromatography-coupled mass spectrometry (LC–MS); conditions: 2 µM
[18] = The drug is tested on WLS-240 corresponding to human gut metagenome with ENA study accession number: PRJEB37062 and ENA sample accession number: ERS12561773 for biotransformation under anaerobic condition. The drug concentrations were measured over 9 timepoints collected between 0 and 24 hours of incubation by liquid-chromatography-coupled mass spectrometry (LC–MS); conditions: 2 µM
[19] = The drug is tested on Z-028 corresponding to mouse gut metagenome with ENA study accession number: PRJEB37062 and ENA sample accession number: ERS12561827 for biotransformation under anaerobic condition. The drug concentrations were measured over 9 timepoints collected between 0 and 24 hours of incubation by liquid-chromatography-coupled mass spectrometry (LC–MS); conditions: 2 µM
[20] = The drug is tested on Z-007 corresponding to rat gut metagenome with ENA study accession number: PRJEB37062 and ENA sample accession number: ERS12561807 for biotransformation under anaerobic condition. The drug concentrations were measured over 9 timepoints collected between 0 and 24 hours of incubation by liquid-chromatography-coupled mass spectrometry (LC–MS); conditions: 2 µM
Also: call rule not given here.

| SMILES | Bacterial Biotransformation [1] | Bacterial Biotransformation [2] | Bacterial Biotransformation [3] | Bacterial Biotransformation [4] | Bacterial Biotransformation [5] | Bacterial Biotransformation [6] | Bacterial Biotransformation [7] | Bacterial Biotransformation [8] | Bacterial Biotransformation [9] | Bacterial Biotransformation [10] | Bacterial Biotransformation [11] | Bacterial Biotransformation [12] | Bacterial Biotransformation [13] | Bacterial Biotransformation [14] | Bacterial Biotransformation [15] | Bacterial Biotransformation [16] | Bacterial Biotransformation [17] | Bacterial Biotransformation [18] | Bacterial Biotransformation [19] | Bacterial Biotransformation [20] |
| --- | --- | --- | --- | --- | --- | --- | --- | --- | --- | --- | --- | --- | --- | --- | --- | --- | --- | --- | --- | --- |
| O=c1[nH]c2ccccc2n1C1CCN(CCCC(c2ccc(F)cc2)c2ccc(F)cc2)CC1 [PIMOZIDE] | Compound metabolized | Compound metabolized | Compound metabolized | Compound metabolized | Compound metabolized | Compound metabolized | Compound NOT metabolized | Compound metabolized | Compound NOT metabolized | Compound NOT metabolized | Compound metabolized | Compound metabolized | Compound metabolized | Compound NOT metabolized | Compound NOT metabolized | Compound NOT metabolized | Compound NOT metabolized | Compound metabolized | Compound NOT metabolized | Compound metabolized |
| COc1cc2nc(N3CCN(C(=O)c4ccco4)CC3)nc(N)c2cc1OC [PRAZOSIN] | Compound NOT metabolized | Compound metabolized | Compound metabolized | Compound NOT metabolized | Compound metabolized | Compound NOT metabolized | Compound NOT metabolized | Compound metabolized | Compound NOT metabolized | Compound NOT metabolized | Compound metabolized | Compound metabolized | Compound NOT metabolized | Compound NOT metabolized | Compound NOT metabolized | Compound NOT metabolized | Compound NOT metabolized | Compound metabolized | Compound NOT metabolized | Compound NOT metabolized |
| CS(=O)(=O)O.OC(CCN1CCCCC1)(c1ccccc1)c1ccccc1 [PRIDINOL METHANESULFONATE] | Compound metabolized | Compound metabolized | Compound NOT metabolized | Compound NOT metabolized | Compound metabolized | Compound metabolized | Compound NOT metabolized | Compound metabolized | Compound NOT metabolized | Compound NOT metabolized | Compound metabolized | Compound metabolized | Compound NOT metabolized | Compound NOT metabolized | Compound NOT metabolized | Compound NOT metabolized | Compound NOT metabolized | Compound metabolized | Compound NOT metabolized | Compound NOT metabolized |
| CC(CN1c2ccccc2Sc2ccccc21)N(C)C (stereo not given) [PROMETHAZINE] | Compound NOT metabolized | Compound metabolized | Compound NOT metabolized | Compound metabolized | Compound metabolized | Compound metabolized | Compound NOT metabolized | Compound metabolized | Compound NOT metabolized | Compound NOT metabolized | Compound metabolized | Compound metabolized | Compound metabolized | Compound NOT metabolized | Compound metabolized | Compound NOT metabolized | Compound NOT metabolized | Compound metabolized | Compound NOT metabolized | Compound NOT metabolized |
| OCCOCCN1CCN(C2=Nc3ccccc3Sc3ccccc32)CC1 [QUETIAPINE] | Compound NOT metabolized | Compound NOT metabolized | Compound NOT metabolized | Compound metabolized | Compound metabolized | Compound NOT metabolized | Compound NOT metabolized | Compound NOT metabolized | Compound NOT metabolized | Compound NOT metabolized | Compound metabolized | Compound metabolized | Compound NOT metabolized | Compound NOT metabolized | Compound NOT metabolized | Compound NOT metabolized | Compound NOT metabolized | Compound metabolized | Compound NOT metabolized | Compound NOT metabolized |
